From patent US20260285850A1, “SUBSTITUTED OXAZOLIDINONES AND IMIDAZOLINONES AS HERBICIDES” (FMC CORPORATION, priority 2023, published 2026)

Columns and labels:
Type in all cases: in vivo
[1] = system: ryegrass, Italian (italian ryegrass, Lolium multiflorum); assay: Test A preemergence soil spray, visual injury rating 0-100; details: 10 days
Summary of the method: (§1)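 Greenhouse test: loam/sand pots received a surfactant-containing formulation, as a preemergence directed soil spray or a postemergence spray on young plants. Injury was judged visually at day 10 relative to untreated controls.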

[2] = system: blackgrass (Alopecurus myosuroides); assay: as above; details: 10 days
Summary of the method: as §1

[3] = system: green foxtail (Setaria viridis); assay: as above; details: 10 days
Summary of the method: as §1

[4] = system: soybean (Glycine max); assay: as above; details: 10 days
Summary of the method: as §1

[5] = system: oat, wild (wild oat, Avena fatua); assay: as above; details: 10 days
Summary of the method: as §1

[6] = system: wheat (Triticum aestivum); assay: as above; details: 10 days
Summary of the method: as §1

[7] = system: ragweed (common ragweed, Ambrosia artemisiifolia); assay: as above; details: 10 days
Summary of the method: as §1

[8] = system: barnyardgrass (Echinochloa crus-galli); assay: as above; details: 10 days
Summary of the method: as §1

[9] = system: kochia (Bassia scoparia); assay: as above; details: 10 days
Summary of the method: as §1

[10] = system: corn (Zea mays); assay: as above; details: 10 days
Summary of the method: as §1

[11] = system: palmer (palmer amaranth, palmer pigweed, Amaranthus palmeri); assay: as above; details: 10 days
Summary of the method: as §1

[12] = system: ryegrass, Italian (italian ryegrass, Lolium multiflorum); assay: Test A postemergence application, visual injury rating 0-100
Summary of the method: as §1

[13] = system: blackgrass (Alopecurus myosuroides); assay: as above
Summary of the method: as §1

[14] = system: green foxtail (Setaria viridis); assay: as above
Summary of the method: as §1

[15] = system: soybean (Glycine max); assay: as above
Summary of the method: as §1

[16] = system: oat, wild (wild oat, Avena fatua); assay: as above
Summary of the method: as §1

[17] = system: wheat (Triticum aestivum); assay: as above
Summary of the method: as §1

[18] = system: ragweed (common ragweed, Ambrosia artemisiifolia); assay: as above
Summary of the method: as §1

[19] = system: galium (catchweed bedstraw, Galium aparine); assay: as above
Summary of the method: as §1

[20] = system: barnyardgrass (Echinochloa crus-galli); assay: as above
Summary of the method: as §1

[21] = system: horseweed (Erigeron canadensis); assay: as above
Summary of the method: as §1

[22] = system: kochia (Bassia scoparia); assay: as above
Summary of the method: as §1

[23] = system: corn (Zea mays); assay: as above
Summary of the method: as §1

[24] = system: palmer (palmer amaranth, palmer pigweed, Amaranthus palmeri); assay: as above
Summary of the method: as §1

[25] = system: barnyardgrass (Echinochloa crusgalli); assay: Test B flooded paddy test, visual plant response rating 0-100; details: 250 g ai/ha, Flood, applied to paddy water, evaluated after 13 days
Summary of the method: (§2)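 Treatment occurs at the 2-leaf stage by adding compound to floodwater standing 3 cm above the soil, a level kept for the whole test. Plants stay in the greenhouse 13 days before visual comparison with controls.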

[26] = system: rice (Oryza sativa); assay: as above; details: 250 g ai/ha, Flood, applied to paddy water, evaluated after 13 days
Summary of the method: as §2

[27] = system: ducksalad (Heteranthera limosa); assay: as above; details: 250 g ai/ha, Flood, applied to paddy water, evaluated after 13 days
Summary of the method: as §2

[28] = system: sedge, umbrella (small-flower umbrella sedge, Cyperus difformis); assay: as above; details: 250 g ai/ha, Flood, applied to paddy water, evaluated after 13 days
Summary of the method: as §2

[29] = 62 g ai/ha, 0 = no effect, 100 = complete control
[30] = 62 g ai/ha, postemergence, 10 days, 0 = no effect, 100 = complete control
[31] = Postemergence, 16 g ai/ha, greenhouse 10 days, 0 no effect, 100 complete control

Compound: CC1(C(=O)NC2CC=C(C(=O)O)C2)CN(c2cc(Cl)cc(Cl)c2)C(=O)O1 (stereo not shown) [Compound 157]
- Ryegrass, Italian plant response rating ([1]; 16 g ai/ha, 0 to 100 scale): 0
- Ryegrass, Italian plant response rating (0-100) [1, 29]: 0
- Blackgrass plant response rating ([2]; 16 g ai/ha, 0 to 100 scale): 0
- Blackgrass plant response rating (0-100) [2, 29]: 0
- Foxtail, Green plant response rating ([3]; 16 g ai/ha, 0 to 100 scale): 0
- Foxtail, Green plant response rating (0-100) [3, 29]: 0
- Soybean plant response rating ([4]; 16 g ai/ha, 0 to 100 scale): 0
- Soybean plant response rating (0-100) [4, 29]: 0
- Oat, Wild plant response rating ([5]; 16 g ai/ha, 0 to 100 scale): 0
- Oat, Wild plant response rating (0-100) [5, 29]: 0
- Wheat plant response rating ([6]; 16 g ai/ha, 0 to 100 scale): 0
- Wheat plant response rating (0-100) [6, 29]: 0
- Ragweed plant response rating ([7]; 16 g ai/ha, 0 to 100 scale): 0
- Ragweed plant response rating (0-100) [7, 29]: 0
- Barnyardgrass plant response rating ([8]; 16 g ai/ha, 0 to 100 scale): 0
- Barnyardgrass plant response rating (0-100) [8, 29]: 30
- Kochia plant response rating ([9]; 16 g ai/ha, 0 to 100 scale): 0
- Kochia plant response rating (0-100) [9, 29]: 0
- Corn plant response rating ([10]; 16 g ai/ha, 0 to 100 scale): 0
- Corn plant response rating (0-100) [10, 29]: 0
- Pigweed, Palmer plant response rating ([11]; 16 g ai/ha, 0 to 100 scale): 0
- Pigweed, Palmer plant response rating (0-100) [11, 29]: 0
- Ryegrass, Italian plant response rating (0-100) [12, 30]: 60
- Ryegrass, Italian plant response rating (0 to 100 scale) [12, 31]: 0
- Blackgrass plant response rating (0-100) [13, 30]: 30
- Blackgrass plant response rating (0 to 100 scale) [13, 31]: 0
- Foxtail, Green plant response rating (0-100) [14, 30]: 10
- Foxtail, Green plant response rating (0 to 100 scale) [14, 31]: 0
- Soybean plant response rating (0-100) [15, 30]: 60
- Soybean plant response rating (0 to 100 scale) [15, 31]: 40
- Oat, Wild plant response rating (0-100) [16, 30]: 0
- Oat, Wild plant response rating (0 to 100 scale) [16, 31]: 0
- Wheat plant response rating (0-100) [17, 30]: 30
- Wheat plant response rating (0 to 100 scale) [17, 31]: 0
- Ragweed plant response rating (0-100) [18, 30]: 30
- Ragweed plant response rating (0 to 100 scale) [18, 31]: 0
- Galium plant response rating (0-100) [19, 30]: 70
- Galium plant response rating (0 to 100 scale) [19, 31]: 30
- Barnyardgrass plant response rating (0-100) [20, 30]: 40
- Barnyardgrass plant response rating (0 to 100 scale) [20, 31]: 0
- Horseweed plant response rating (0-100) [21, 30]: 0
- Horseweed plant response rating (0 to 100 scale) [21, 31]: 0
- Kochia plant response rating (0-100) [22, 30]: 60
- Kochia plant response rating (0 to 100 scale) [22, 31]: 50
- Corn plant response rating (0-100) [23, 30]: 0
- Corn plant response rating (0 to 100 scale) [23, 31]: 0
- Pigweed, Palmer plant response rating (0-100) [24, 30]: 50
- Pigweed, Palmer plant response rating (0 to 100 scale) [24, 31]: 0
- Plant response rating, Barnyardgrass (0 to 100 scale, 0 is no effect and 100 is complete control) [25]: 0
- Plant response rating, Rice (0 to 100 scale, 0 is no effect and 100 is complete control) [26]: 0
- Plant response rating, Ducksalad (0 to 100 scale, 0 is no effect and 100 is complete control) [27]: 0
- Plant response rating, Sedge, Umbrella (0 to 100 scale, 0 is no effect and 100 is complete control) [28]: 0
